Source: US8822698B2, “Aminoacid derivatives, their process of preparation and their therapeutical uses as inhibitors of oncogenic signals by the Met family” (Universite D'Aix-Marseille, priority 2009, dated 2014)

What was measured:
Test in all cases: NCI 60 human tumour cell line screen
Assay type in all cases: cell-based
[1] = system: CCRF-CEM; conditions: conc. 10^−5M, Leukemia
Excerpt: (§1) Compound of example 4 was screened in the NCI 60 human tumour cell line anticancer drug screen (Shoemaker et al Nature reviews 6, 2006, 813-823).

[2] = system: HCT-116; conditions: conc. 10^−5M; HCT-116, Colon Cancer
Excerpt: as §1

[3] = system: NCl-H460; conditions: conc. 10^−5M; NCl-H460, Non-Small Cell Lung Cancer
Excerpt: as §1

[4] = system: NCl/ADR-RES; conditions: conc. 10^−5M, Ovarian Cancer
Excerpt: as §1

[5] = system: OVCAR-5; conditions: conc. 10^−5M; OVCAR-5, Ovarian Cancer
Excerpt: as §1

[6] = system: SF-295; conditions: conc. 10^−5M; SF-295, CNS Cancer
Excerpt: as §1

[7] = system: SNB-75; conditions: conc. 10^−5M; SNB-75, CNS Cancer
Excerpt: as §1

O=C(Cc1cc(C(F)(F)F)cc(C(F)(F)F)c1)N[C@@H](Cc1ccccc1)C(=O)Nc1ccc(-c2cn3c(n2)sc2ccccc23)cc1 [Example 4, (S)-2-(3,5-bis(trifluoromethyl)phenylacetamido)-3-phenyl-N-[4-(imidazo[2,1-b]benzothiazol-2-yl)phenyl]propanamide]
Growth Percent [1]: 32.94%
Growth Percent [2]: 21.40%
Growth Percent [3]: −16.59%
Growth Percent [4]: 43.07%
Growth Percent [5]: 97.36%
Growth Percent [6]: 42.18%
Growth Percent [7]: 20.69%
